# According to ChEMBL document CHEMBL3396996, “Catechol-based substrates of chalcone synthase as a scaffold for novel inhibitors of PqsD” (Eur J Med Chem, 2015):
# The source made the active and inactive calls. The calls are words filed in the database; no cut-off is given here.
# Tests used:
# [1] = target: T1, 2-heptyl-4(1H)-quinolone synthase PqsD (Pseudomonas aeruginosa) (UniProt A0A0C7ACN7); assay: Inhibition of Pseudomonas aeruginosa recombinant PqsD expressed in Escherichia coli BL21 (lambdaDE3) using ACoA/beta-ketodecanoic acid as substrate at 50 uM after 10 mins
# T1 sequence (whole entry): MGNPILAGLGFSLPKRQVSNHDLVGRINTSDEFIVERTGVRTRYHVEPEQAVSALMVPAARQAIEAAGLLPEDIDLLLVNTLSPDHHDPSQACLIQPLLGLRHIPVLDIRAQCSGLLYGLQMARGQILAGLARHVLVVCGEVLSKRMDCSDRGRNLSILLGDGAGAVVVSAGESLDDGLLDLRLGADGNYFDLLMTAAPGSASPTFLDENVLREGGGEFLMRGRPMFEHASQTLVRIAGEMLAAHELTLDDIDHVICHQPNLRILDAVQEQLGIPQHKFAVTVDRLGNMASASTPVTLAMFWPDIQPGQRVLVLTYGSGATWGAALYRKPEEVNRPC
# [2] = system: Pseudomonas aeruginosa PA14; assay: Inhibition of Pseudomonas aeruginosa PA14 PqsH transposon mutant assessed as extracellular level of HHQ after 16 hrs
# [3] = target: T2, 2-heptyl-4(1H)-quinolone synthase PqsD (Pseudomonas aeruginosa, UniProt A0A0C7ACN7); assay: Inhibition of Pseudomonas aeruginosa recombinant PqsD expressed in Escherichia coli BL21 (lambdaDE3) using ACoA/beta-ketodecanoic acid as substrate after 10 mins
# T2 sequence (A0A0C7ACN7 whole entry): T1 sequence (whole entry)
# [4] = system: Pseudomonas aeruginosa PA14; assay: Inhibition of Pseudomonas aeruginosa PA14 PqsH transposon mutant assessed as extracellular level of HHQ at 250 uM after 16 hrs
# [5] = target: T1, 2-heptyl-4(1H)-quinolone synthase PqsD (Pseudomonas aeruginosa); assay: Binding affinity to Pseudomonas aeruginosa recombinant his6-tagged PqsD expressed in Escherichia coli BL21 (lambdaDE3) using AcoA as substrate at 250 to 500 uM incubated for 40 mins prior to compound addition followed by wash out for 30 mins by SPR analysis
# [6] = system: Pseudomonas aeruginosa PA14; assay: Inhibition of Pseudomonas aeruginosa PA14 PqsH transposon mutant assessed as extracellular level of HHQ at 500 uM after 16 hrs
# [7] = target: T1, 2-heptyl-4(1H)-quinolone synthase PqsD (Pseudomonas aeruginosa); assay: Binding affinity to Pseudomonas aeruginosa recombinant his6-tagged PqsD expressed in Escherichia coli BL21 (lambdaDE3) at 250 to 500 uM by SPR analysis
SMILES,inhibition [1] [%],IC50 [3] [µM],inhibition [4] [%],other results
O=C(O)/C=C/c1cccc(O)c1,< 10,,,
COC(=O)CCc1ccc(O)c(O)c1,,23,,Activity [2]: 17 µM
COC(=O)/C=C/c1ccc(F)c(F)c1,< 10,,< 10,
O=C(O)/C=C/c1ccoc1,12,,,
COC(=O)/C=C/c1ccc(O)cc1,22,,< 10,Activity [5]: inactive
COC(=O)/C=C/c1ccccc1,< 10,,,Activity [5]: inactive
O=C(O)/C=C/c1ccccc1,33,,< 10,
O=C(O)/C=C/c1ccc(F)c(F)c1,18,,,
O=C(O)/C=C/c1ccc(O)c(O)c1,26,,,inhibition [6]: 10%
COC(=O)CCc1ccc(C)cc1,< 10,,,
O=C(O)/C=C/c1ccsc1,12,,< 10,
COC(=O)CCc1ccc(N)cc1,< 10,,,
CCOC(=O)CCc1ccc(O)c(O)c1,,14,,Activity [2]: 17 µM
COc1cc(/C=C/C(=O)O)ccc1O,< 10,,,
CNC(=O)CCc1ccc(O)c(O)c1,,20,< 10,
COC(=O)Cc1ccc(O)c(O)c1,,23,,Activity [2]: 24 µM
O=C(O)CCc1ccc(O)c(O)c1 [DIHYDROCAFFEIC ACID],,27,< 10,
COC(=O)CCc1ccc(O)cc1,< 10,,,
COC(=O)CCCc1ccc(O)c(O)c1,,7.9,,Activity [2]: 18 µM; Activity [7]: Active
O=C(CCc1ccc(O)c(O)c1)OCc1ccccc1,,5.9,< 10,Activity [7]: Active
COC(=O)CCc1ccc2c(c1)OCO2,37,,< 10,
CC(C)OC(=O)CCc1ccc(O)c(O)c1,,8.6,,Activity [2]: 16 µM; Activity [7]: Active
O=C(O)/C=C/c1ccc(O)cc1,30,,< 10,
COC(=O)/C=C/c1ccc(O)c(O)c1 [METHYLCAFFEATE],,51,,Activity [2]: 31 µM; Activity [5]: inactive
COC(=O)CCc1ccc([N+](=O)[O-])cc1,< 10,,,
